From patent US20120220562A1, “Anti-Viral Compounds” (ABBOTT LABAORATORIES, priority 2011, published 2012)

Tested on: HCV 1b-Con1 replicon
Assay: HCV 1b-Con1 replicon assay in the presence of 5% FBS
Assay type: cell-based
Settings: Hepatitis C virus

| SMILES | EC50 |
| --- | --- |
| COC(=O)N[C@H](C(=O)N1CCC[C@H]1c1nc(-c2ccc([C@H]3CC[C@H](c4ccc(-c5c[nH]c([C@@H]6CCCN6C(=O)[C@@H](NC(=O)OC)C(C)C)n5)cc4)N3c3cc(F)c(N4CCC(c5ccccc5)CC4)c(F)c3)cc2)c[nH]1)C(C)C [Example 9, methyl {(2S)-1-[(2S)-2-(4-{4-[(2R,5R)-1-[3,5-difluoro-4-(4-phenylpiperidin-1-yl)phenyl]-5-(4-{2-[(2S)-1-{(2S)-2-[(methoxycarbonyl)amino]-3-methylbutanoyl}pyrrolidin-2-yl]-1H-imidazol-4-yl}phenyl)pyrrolidin-2-yl]phenyl}-1H-imidazol-2-yl)pyrrolidin-1-yl]-3-methyl-1-oxobutan-2-yl}carbamate] | < 0.1 nM |
| COC(=O)N[C@H](C(=O)N1CCC[C@H]1c1nc2cc([C@H]3CC[C@H](c4ccc5[nH]c([C@@H]6CCCN6C(=O)[C@@H](NC(=O)OC)C6CCCCC6)nc5c4)N3c3cc(F)c(N4CCC(c5ccccc5)CC4)c(F)c3)ccc2[nH]1)C1CCCCC1 [Example 3.22, dimethyl ({(2R,5R)-1-[3,5-difluoro-4-(4-phenylpiperidin-1-yl)phenyl]pyrrolidine-2,5-diyl}bis{1H-benzimidazole-5,2-diyl(2S)pyrrolidine-2,1-diyl [(1S)-1-cyclohexyl-2-oxoethane-2,1-diyl]})biscarbamate] | < 0.1 nM |
| COC(=O)N[C@H](C(=O)N1CCC[C@H]1c1nc2cc([C@H]3CC[C@H](c4cc5nc([C@@H]6CCCN6C(=O)[C@@H](NC(=O)OC)C(C)C)[nH]c5cc4F)N3c3cc(F)c(N4CCC(c5ccc(C)s5)CC4)c(F)c3)c(F)cc2[nH]1)C(C)C [Example 4.61, methyl {(2S)-1-[(2S)-2-{5-[(2R,5R)-1-{3,5-difluoro-4-[4-(5-methyl-2-thienyl)piperidin-1-yl]phenyl}-5-{6-fluoro-2-[(2S)-1-{(2S)-2-[(methoxycarbonyl)amino]-3-methylbutanoyl}pyrrolidin-2-yl]-1H-benzimidazol-5-yl}pyrrolidin-2-yl]-6-fluoro-1H-benzimidazol-2-yl}pyrrolidin-1-yl]-3-methyl-1-oxobutan-2-yl}carbamate] | < 0.1 nM |
| COC(=O)N[C@H](C(=O)N1CCC[C@H]1c1nc2cc(F)c([C@H]3CC[C@H](c4cc5[nH]c([C@@H]6CCCN6C(=O)[C@@H](NC(=O)OC)C(C)C)nc5cc4F)N3c3cc(F)c(N4CCC(Cc5ccccc5)CC4)c(F)c3)cc2[nH]1)C(C)C [Example 4.44, methyl {(2S)-1-[(2S)-2-{6-[(2R,5R)-1-[4-(4-benzylpiperidin-1-yl)-3,5-difluorophenyl]-5-{5-fluoro-2-[(2S)-1-{(2S)-2-[(methoxycarbonyl)amino]-3-methylbutanoyl}pyrrolidin-2-yl]-1H-benzimidazol-6-yl}pyrrolidin-2-yl]-5-fluoro-1H-benzimidazol-2-yl}pyrrolidin-1-yl]-3-methyl-1-oxobutan-2-yl}carbamate] | < 0.1 nM |
| COC(=O)N[C@H](C(=O)N1[C@H](c2nc3cc([C@H]4CC[C@H](c5ccc6[nH]c([C@@H]7C[C@@H]8CCC[C@@H]8N7C(=O)[C@@H](NC(=O)OC)C7CCOCC7)nc6c5)N4c4cc(F)c(N5CCCCC5)c(F)c4)ccc3[nH]2)C[C@@H]2CCC[C@@H]21)C(C)C [Example 10.1, methyl [(1S)-2-[(2S,3aS,6aS)-2-{5-[(2R,5R)-1-[3,5-difluoro-4-(piperidin-1-yl)phenyl]-5-{2[(2S,3aS,6aS)-1-{(2S)-2-[(methoxycarbonyl)amino]-3-methylbutanoyl}octahydrocyclopenta[b]pyrrol-2-yl]-1H-benzimidazol-5-yl}pyrrolidin-2-yl]-1H-benzimidazol-2-yl}hexahydrocyclopenta[b]pyrrol-1(2H)-yl]-2-oxo-1-(tetrahydro-2H-pyran-4-yl)ethyl]carbamate] | < 0.1 nM |
| CCOc1ccc(N2[C@@H](c3ccc4nc([C@@H]5CCCN5C(=O)[C@@H](NC(=O)OC)C(C)C)[nH]c4c3)CC[C@@H]2c2ccc3nc([C@@H]4CCCN4C(=O)[C@@H](NC(=O)OC)C(C)C)[nH]c3c2)cc1 [Example 4.10, methyl {(2S)-1-[(2S)-2-{6-[(2R,5R)-1-(4-ethoxyphenyl)-5-{2-[(2S)-1-{(2S)-2-[(methoxycarbonyl)amino]-3-methylbutanoyl}pyrrolidin-2-yl]-1H-benzimidazol-6-yl}pyrrolidin-2-yl]-1H-benzimidazol-2-yl}pyrrolidin-1-yl]-3-methyl-1-oxobutan-2-yl}carbamate] | < 0.1 nM |
| COC(=O)N[C@H](C(=O)N1CCC[C@H]1c1nc2ccc([C@H]3CC[C@H](c4ccc5nc([C@@H]6CCCN6C(=O)[C@@H](NC(=O)OC)C(C)C)[nH]c5c4)N3c3cc(F)c(N4CCC5(CCCC5)CC4)c(F)c3)cc2[nH]1)C(C)C [Example 2.11, methyl {(2S)-1-[(2S)-2-{5-[(2R,5R)-1-[4-(8-azaspiro[4.5]dec-8-yl)-3,5-difluorophenyl]-5-{2-[(2S)-1-{(2S)-2-[(methoxycarbonyl)amino]-3-methylbutanoyl}pyrrolidin-2-yl]-1H-benzimidazol-5-yl}pyrrolidin-2-yl]-1H-benzimidazol-2-yl}pyrrolidin-1-yl]-3-methyl-1-oxobutan-2-yl}carbamate] | < 0.1 nM |
| COC(=O)N[C@H](C(=O)N1CCC[C@H]1c1nc2cc([C@H]3CC[C@H](c4cc5nc([C@@H]6CCCN6C(=O)[C@@H](NC(=O)OC)[C@@H](C)OC)[nH]c5cc4F)N3c3cc(F)c(N4CCC(c5ccccc5)CC4)c(F)c3)c(F)cc2[nH]1)[C@@H](C)OC [Example 4.38, methyl {(2S,3R)-1-[(2S)-2-{5-[(2R,5R)-1-[3,5-difluoro-4-(4-phenylpiperidin-1-yl)phenyl]-5-(6-fluoro-2-{(2S)-1-[N-(methoxycarbonyl)-O-methyl-L-threonyl]pyrrolidin-2-yl}-1H-benzimidazol-5-yl)pyrrolidin-2-yl]-6-fluoro-1H-benzimidazol-2-yl}pyrrolidin-1-yl]-3-methoxy-1-oxobutan-2-yl}carbamate] | < 0.1 nM |
| COC(=O)N[C@H](C(=O)N1CCC[C@H]1c1nc2cc([C@H]3CC[C@H](c4cc5nc([C@@H]6CCCN6C(=O)[C@@H](NC(=O)OC)[C@@H](C)OC)[nH]c5cc4F)N3c3cc(F)c(N4CCC(c5ccc(F)cc5)CC4)c(F)c3)c(F)cc2[nH]1)[C@@H](C)OC [Example 3.52, methyl {(2S,3R)-1-[(2S)-2-{5-[(2R,5R)-1-{3,5-difluoro-4-[4-(4-fluorophenyl)piperidin-1-yl]phenyl}-5-(6-fluoro-2-{(2S)-1-[N-(methoxycarbonyl)-O-methyl-L-threonyl]pyrrolidin-2-yl}-1H-benzimidazol-5-yl)pyrrolidin-2-yl]-6-fluoro-1H-benzimidazol-2-yl}pyrrolidin-1-yl]-3-methoxy-1-oxobutan-2-yl}carbamate] | < 0.1 nM |
| COC(=O)N[C@H](C(=O)N1CCC[C@H]1c1nc2cc([C@H]3CC[C@H](c4ccc5[nH]c([C@@H]6CCCN6C(=O)[C@@H](NC(=O)OC)C(C)C)nc5c4)N3c3ccc(N4CCC(c5ccccc5)CC4)cc3)ccc2[nH]1)C(C)C [Example 4.25, methyl {(2S)-1-[(2S)-2-(5-{(2R,5R)-5-{2-[(2S)-1-{(2S)-2-[(methoxycarbonyl)amino]-3-methylbutanoyl}pyrrolidin-2-yl]-1H-benzimidazol-5-yl}-1-[4-(4-phenylpiperidin-1-yl)phenyl]pyrrolidin-2-yl}-1H-benzimidazol-2-yl)pyrrolidin-1-yl]-3-methyl-1-oxobutan-2-yl}carbamate] | 0.1 to 1 nM |
| COC(=O)N[C@H](C(=O)N1CCC[C@H]1c1ncc(-c2cccc(C3(c4cccc(-c5cnc([C@@H]6CCCN6C(=O)[C@@H](NC(=O)OC)C(C)C)[nH]5)c4)CN(c4ccccc4)C3)c2)[nH]1)C(C)C [Example 12.2, methyl {(2S)-1-[(2S)-2-(5-{3-[3-(3-{2-[(2S)-1-{(2S)-2-[(methoxycarbonyl)amino]-3-methylbutanoyl}pyrrolidin-2-yl]-1H-imidazol-5-yl}phenyl)-1-phenylazetidin-3-yl]phenyl}-1H-imidazol-2-yl)pyrrolidin-1-yl]-3-methyl-1-oxobutan-2-yl}carbamate] | 1 to 10 nM |
| COC(=O)N[C@H](C(=O)N1[C@H](c2nc3cc([C@H]4CC[C@H](c5ccc6[nH]c([C@@H]7CCC(C)(C)N7C(=O)[C@@H](NC(=O)OC)C(C)C)nc6c5)N4c4ccc(C(C)(C)C)cc4)ccc3[nH]2)CCC1(C)C)C(C)C [Example 3.11, methyl {(2S)-1-[(5.5)-5-{5-[(2R,5R)-1-(4-tert-butylphenyl)-5-{2-[(2S)-1-{(2S)-2-[(methoxycarbonyl)amino]-3-methylbutanoyl}-5,5-dimethylpyrrolidin-2-yl]-1H-benzimidazol-5-yl}pyrrolidin-2-yl]-1H-benzimidazol-2-yl}-2,2-dimethylpyrrolidin-1-yl]-3-methyl-1-oxobutan-2-yl}carbamate] | < 0.1 nM |
| COC(=O)N[C@H](C(=O)N1CCC[C@H]1c1nc2cc([C@H]3CC[C@H](c4cc5nc([C@@H]6CCCN6C(=O)[C@@H](NC(=O)OC)C6CCOCC6)[nH]c5cc4F)N3c3cc(F)c(N4CCC(c5ccc(F)cc5)CC4)c(F)c3)c(F)cc2[nH]1)C1CCOCC1 [Example 3.53, dimethyl ([(2R,5R)-1-{3,5-difluoro-4-[4-(4-fluorophenyl)piperidin-1-yl]phenyl}pyrrolidine-2,5-diyl]bis{(6-fluoro-1H-benzimidazole-5,2-diyl)(2S)pyrrolidine-2,1-diyl[(1S)-2-oxo-1-(tetrahydro-2H-pyran-4-yl)ethane-2,1-diyl]})biscarbamate] | < 0.1 nM |
| COC(=O)N[C@H](C(=O)N1CCC[C@H]1c1nc2cc([C@@H]3CC[C@@H](c4ccc5[nH]c([C@@H]6CCCN6C(=O)[C@@H](NC(=O)OC)[C@@H](C)OC)nc5c4)N3c3ccc(C4CC4)cc3F)ccc2[nH]1)[C@@H](C)OC [Example 3.13, methyl {(2S,3R)-1-[(2S)-2-{5-[(2S,5S)-1-(4-cyclopropyl-2-fluorophenyl)-5-(2-{(2S)-1-[N-(methoxycarbonyl)-O-methyl-L-threonyl]pyrrolidin-2-yl}-1H-benzimidazol-5-yl)pyrrolidin-2-yl]-1H-benzimidazol-2-yl}pyrrolidin-1-yl]-3-methoxy-1-oxobutan-2-yl}carbamate] | < 0.1 nM |
